# Experimental data: US20070117794A1, “Methods of treatment using oxytocin receptor agonists” (Wyeth, priority 2005, published 2007)
# “Also recorded” adds a separate entry of the source.
# Legend:
# [1] = system: Male Sprague-Dawley derived Rats; experiment: Prepulse inhibition of the acoustic startle reflex (PPI), d-Amphetamine disrupted; assay type: in vivo, rat; settings: for reversal of d-amphetamine induced disruption of PPI: i.p., 30 mins prior to test, hydrochloride
# Excerpt: (§1) Prepulse inhibition of the acoustic startle reflex (PPI) is an operational measure of sensorimotor gating that can be measured across many species. Deficits in PPI have been reported in patients with schizophrenia, leading to its use as a preclinical model of the disease. In rats, PPI is decreased in a manner homologous to that seen in schizophrenia following administration of certain psychotomimetic drugs (e.g. MK801; amphetamine). In our study we utilized MK801, a non-competitive NMDA antagonist and d-Amphetamine, a non-selective dopamine agonist.
# (§2) Animals: Male Sprague-Dawley derived Rats (SD) weighing 200-250 g were group housed in standard bedding cages, allowed access to food and water ad libitum, and maintained on a 12-hour light dark cycle. All behavioral testing was performed during the light cycle. All studies were previously approved by the Institutional Animal Care and Use Committee, and performed in accordance to the Guide for the Care and Use of Laboratory Animals as adopted and promulgated by the National Institutes of Health.
# (§3) Test Compounds: The oxytocin agonist cpd A was dissolved in a 1% Tween-80/1% DMSO/saline vehicle. MK801 (Sigma, St. Louis, Mo.) was dissolved in 2% Tween-80/saline. d-Amphetamine (Sigma, St. Louis, Mo.) was dissolved in saline.
# (§4) Each testing chamber (SR-LAB system, San Diego Instruments) consisted of a Plexiglas cylinder (8.8 cm in diameter) mounted on a frame and held in position by four metal pins to a base unit. Movement of the rat within the cylinder was detected by a piezoelectric accelerometer attached below the frame. […] Presentation of acoustic pulse and prepulse stimuli were controlled by the SR-LAB software and interface system, which also digitized, rectified and recorded the responses from the accelerometer. Mean startle amplitude was determined by averaging 100, 1 ms readings taken from the beginning of the pulse stimulus onset. For calibration purposes, sound levels were measured with a Quest sound level meter, scale “A”, with the microphone placed inside the Plexiglas cylinder. […]
# [2] = system: Male Sprague-Dawley derived Rats; experiment: Prepulse inhibition of the acoustic startle reflex (PPI), MK801 disrupted; assay type: in vivo, rat
# Excerpt: as §1, §2, §3, §4
# Startle amplitude was defined as the mean value of pulse alone trials. To evaluate the effect of drug treatment on startle response, data from the pulse alone trials was analyzed using one-factor ANOVA with repeated measures (one-way randomized block design), followed by a least significant difference (LSD) post-hoc test (comparison was made to vehicle/disrupting agent control). […] Although data for gating at three different prepulse intensities was generated, an averaged gating score across all prepulse intensities was calculated and this was analyzed by one factor ANOVA with repeated measures (one-way randomized block design). […]
# [3] = system: Male Swiss-Webster mice; experiment: Four-Plate Test (FPT), punished crossings; assay type: in vivo, mouse; settings: for reversal of the anxiolytic-like effect of cpd A / blockade of the anxiolytic-like effect of cpd A (in words): co-administered with cpd A 10 mg/kg; for blockade of the anxiolytic-like effect of cpd A (in words): cpd B 10-30 mg/kg
# Procedure: Animals: Male Swiss-Webster mice weighing 18-24 g were housed in groups of 15 in hanging wire cages, allowed access to food and water ad libitum, and maintained on a 12-hour light dark cycle. All behavioral testing was performed during the light cycle. All studies were previously approved by the Institutional Animal Care and Use Committee, and performed in accordance to the Guide for the Care and Use of Laboratory Animals as adopted and promulgated by the National Institutes of Health.
# Test Compounds: Oxytocin (American Peptide Company, Sunnyvale, Calif.) was dissolved in a saline vehicle. The oxytocin agonist 4,-(3,5-Dihydroxy-benzyl)-piperazine-1-carboxylic acid 2-methyl-4-(3-methyl-4,10-dihydro-3H-2,3,4,9-tetra-aza-benzo[f]azulene-9-carbonyl)-benzylamide (hereinafter “cpd A”) and oxytocin antagonist 10-[(2-Methyl-2′-trifluoromethyl-[1,1′-biphenyl]-4-yl)carbonyl]-10,11-dihydro-5H-pyrrolo[2,1-c][1,4]benzodiazepine-3-carboxylic acid-bis-(2-hydroxy-ethyl)-amide (hereinafter “cpd B”) (Patent W/O 02/083680) were prepared and dissolved in a 1% Tween-80/1% DMSO/saline vehicle.
# ICV injections: Mice were lightly anesthetized with halothane. Oxytocin was administered into either the left or right ventricle by visual location. A 26 gauge Hamilton syringe with 3 mm needle was used for injections and the injection site was visualized by locating the middle of the invisible line that runs diagonally from the left eye to the right ear. Test compounds were injected in a 2 μl total volume.
# Four-Plate Test (FPT:) The four-plate apparatus consists of a Plexiglas chamber (18×25×16 cm) floored with four identical rectangular metal plates (8×11 cm), which are separated from one another by a gap of 4 mm and connected to a computerized device that can deliver electric shocks (0.8 mA, 0.5 sec) (Aron et al. Evaluation of a rapid technique for detecting minor tranquilizers, Neuropharmacology 10: 459-69 (1971)). In this test, mice are placed into the chamber and following a brief (18 seconds) habituation period, the animal's innate motivation to explore the novel environment is suppressed by the delivery of a mild foot shock every time the animal crosses any of the boundaries (gaps) while moving from one plate to another (referred to as a ‘punished crossing’). Following any punished crossing, there is a 3-second time out where the mouse may cross the electric plates without receiving another shock. An experimenter blind to the dosing conditions administers shocks, and a computer records the total number of punished crossings an animal makes during a 1-minute testing period. […] Pharmacol Biochem Behav 65: 339-44 (2000)). In all experiments, the testing procedure consisted of either a single injection or two injections followed by a test session 30 minutes later.
# Statistical Analysis: One-way analysis of variance (ANOVA) was performed to determine effects of test compound treatments, followed by Least Significant Difference Tests for a post hoc analysis. All figures are shown with average ±SEM.
smiles,measurement,setting,value
"Cc1cc(C(=O)N2Cc3cnn(C)c3Nc3ccccc32)ccc1CNC(=O)N1CCN(Cc2cc(O)cc(O)c2)CC1.Cl [Cpd A (HCl salt), 4,-(3,5-Dihydroxy-benzyl)-piperazine-1-carboxylic acid 2-methyl-4-(3-methyl-4,10-dihydro-3H -2,3,4,9-tetra-aza-benzo[f]azulene-9-carbonyl)-benzylamide hydrochloride]",reversal of d-amphetamine induced disruption of PPI,"[1]; Cpd A (HCl salt) 10 mg/kg, 10 mg/kg",reversed d-amphetamine induced disruption at 5 dB and 10 dB; also recorded: reversed d-amphetamine—induced deficit at 5 dB and 10 dB
same,reversal of d-amphetamine induced disruption of PPI,"[1]; Cpd A (HCl salt) 30 mg/kg, 30 mg/kg",reversed the d-amphetamine induced disruption at 10 dB
C[C@]12N[C@H](Cc3ccccc31)c1ccccc12 [MK801],disruption of PPI,"[2]; MK801 0.1 mg/kg s.c., 10 min prior to test, 5 dB, 10 dB & 15 dB prepulse, 0.1 mg/kg",produced significant disruption in PPI across three prepulse intensities; also recorded: produced significant disruption across all three prepulse intensities
same,startle alone,"[2]; MK801 0.1 mg/kg s.c., 10 min prior to test, p >0.05",no effect on startle alone
"Cc1cc(C(=O)N2Cc3cnn(C)c3Nc3ccccc32)ccc1CNC(=O)N1CCN(Cc2cc(O)cc(O)c2)CC1 [cpd A, 4,-(3,5-Dihydroxy-benzyl)-piperazine-1-carboxylic acid 2-methyl-4-(3-methyl-4,10-dihydro-3H-2,3,4,9-tetra-aza-benzo[f]azulene-9-carbonyl)-benzylamide]",increase in punished crossings from vehicle,"[3]; cpd A 10 mg/kg, ip, 30 minutes prior to testing, p<0.05",32%
same,punished crossings (effect in words),"[3]; cpd A 10 mg/kg, ip, antagonist study (FIG. 3), p<0.05, 10 mg/kg",increases punished crossings; also recorded: increased punished crossings compared to vehicle
same,increase in punished crossings from vehicle,"[3]; cpd A 30 mg/kg, ip, 30 minutes prior to testing, p<0.05",25%
same,punished crossings (effect in words),"[3]; cpd A 3-100 mg/kg, ip, 30 minutes prior to testing",increases the number of punished crossings; also recorded: significant overall effect on punished crossings
same,reversal of MK801 induced deficits in PPI,"[2]; Cpd A 30 mg/kg i.p. (highest dose of 3-30 mg/kg), 30 mins prior to test",reversed MK801 induced deficits in PPI at 10 dB & 15 dB levels; also recorded: reversed MK801 induced disruption at 10 dB and 15 dB
"Cc1cc(C(=O)N2Cc3ccc(C(=O)N(CCO)CCO)n3Cc3ccccc32)ccc1-c1ccccc1C(F)(F)F [cpd B, 10-[(2-Methyl-2′-trifluoromethyl-[1,1′-biphenyl]-4-yl)carbonyl]-10,11-dihydro-5H-pyrrolo[2,1-c][1,4]benzodiazepine-3-carboxylic acid-bis-(2-hydroxy-ethyl)-amide]",reversal of the anxiolytic-like effect of cpd A,"[3]; cpd B 10 mg/kg, ip",63%
same,reversal of the anxiolytic-like effect of cpd A,"[3]; cpd B 30 mg/kg, ip, p<0.05",100%
same,blockade of the anxiolytic-like effect of cpd A (in words),[3]; ip,blocked the anxiolytic-like effect of cpd A in a dose-dependent manner
same,blockade of the anxiolytic-like effect of cpd A (in words),"[3]; ip, listed as Cpd B",dose-dependently blocks the anxiolytic-like effect of Cpd A
same,punished crossings (effect in words),[3]; cpd B administered alone,no effect on punished crossings
C[C@H](N)Cc1ccccc1 [d-Amphetamine],disruption of PPI,"[1]; d-Amphetamine 4 mg/kg s.c., 10 min prior to test, 5 dB, 10 dB & 15 dB prepulse",produced significant disruption across all three prepulse intensities
